In one assay the target is PKR WT (Homo sapiens, UniProt P30613). In words: PKR enzyme assay (WT), LDH-coupled, absorbance 340 nm. As to conditions: wild type PKR enzyme activation. In kind it is biochemical. The protocol: (§1) PKR (WT or mutant) enzyme stock solution was diluted to prepare a 1.25× Reaction Mix (without ADP). 1 μL of test compound was first added to the wells followed by 40 μL of 1.25× Reaction Mix (without ADP) and incubated at room temperature (25° C.) for 60 min. The reaction was initiated with 10 μL ADP, bringing the final Reaction Mix to 1x, and the reaction progress was measured as changes in absorbance at 340 nm wavelength at room temperature.
(§2) Test compound preparation: Test compounds were prepared at 50× final concentration in DMSO. 1 to 3 dilutions were made for 11 points (for example 50 μL of 5000 μM compound was added to 100 μL 100% DMSO to yield a 1667 μM, 50 μL of this added to 100 μL DMSO to yield 556 μM, and so forth). The compounds were added to the assay as a 1 to 50 dilution (1 μL in 50 μL) to yield a top concentration of 100 μM, decreasing 3-fold for 11 points.
(§3) Reaction Mix: PKR (1.25-1000 ng/well, 0.025-20 μg/ml depending on the PKR mutant), ADP (0.05-2.3 mM depending on the PKR mutant), PEP (0.031-2 mM depending on the PKR mutant), NADH (180 μM), LDH (0.005 U/μL, Sigma #L3888), 1 mM DTT, 0.03% BSA in 1× Reaction Buffer
(§4) Reaction Buffer: 100 mM KCl, 50 mM Tris pH 7.5, 5 mM MgCl2.

The target of another assay is PK R510Q (Homo sapiens, UniProt P30613, R510Q). Nature of the assay: PKR Mutant Assay (R510Q), LDH-coupled, absorbance 340 nm. Conditions: mutant PKR R510Q enzyme activation. In kind it is biochemical. The protocol:
as §1, §2, §3, §4

The target of a further assay is PKR K410E (Homo sapiens, UniProt P30613, K410E). In words: PKR Mutant Assay (K410E), LDH-coupled, absorbance 340 nm. It counts as biochemical. As to conditions: mutant PKR K410E enzyme activation. The procedure:
as §1, §2, §3, §4

Another assay relates to RBCs. In words: Cell Based ATP Assay in purified red blood cells (Cell-Titer-Glo). Conditions: wild type PKR, ATP levels in RBCs, overnight at 37° C. Further details: species or system human. The procedure:
Fresh blood drawn from healthy volunteers into K2EDTA tubes was collected. Whole blood was pelleted by spinning at 500 g for 10 minutes. The transfusion bag port was cut off Purecell leukocyte reduction neofilter (Fisher NC0267633) one (1) inch above filter. A 10 ml syringe barrel was attached to the remaining cut tubing attached to the neofilter. The plasma layer was removed from the pellet of the whole blood and the pellet was resuspended in 2× volume of phosphate buffered saline (PBS). 9 ml re-suspended blood cell pellet was transferred to a 10 ml syringe that was attached to the neofilter. The whole blood was allowed to gravity flow through filter until all fluid ran through upper tubing into a filter disc. The plunger was added to the syringe. The filter was inverted and air was plunged through the syringe filter system. A new 5 ml syringe was used to remove filtered RBCs from the bag by the syringe port. Purified RBCs were transferred to a 5 ml snap cap tube that had been incubated on ice. The 5 ml snap cap tube was spun at 500 g for 10 minutes at 15 C. Supernatant was aspirated and resuspended in AGAM (1×PBS, 1% glucose, 170 mg/L adenine, 5.25 g/L mannitol) at a density of 4×10^9 cells/mL.
For cell based ATP assays, the compound as described herein was prepared in 100% DMSO as a 10 mM stock. Serial dilutions (1:4) were performed in 96-well V-bottom storage plate and then added 1:100 to 96-well V-bottom plates containing AGAM. 10 μL/well of compound diluted in AGAM was added to black clear bottom assay plates. RBCs were diluted in AGAM media to a density of 1×10^7 cells/mL before added 90 μL/well to black clear bottom assay plates (final compound concentration at 0.1% DMSO concentration). Assay plates were sealed using aluminum foil seals and incubated overnight at 37° C. in a humidified chamber. ATP levels were read out using Cell-Titer-Glo (Promega).

The target of another assay is PKM2 WT (Homo sapiens, UniProt P14618). Nature of the assay: PKM2 Assay, LDH-coupled, absorbance 340 nm. As to conditions: wild type PKM2 enzyme activation. It counts as biochemical. The procedure: PKM2 enzyme stock solution was diluted to prepare a 1.25× Reaction Mix (without ADP). 1 μL of test compound was first added to the wells followed by 40 μL of 1.25× Reaction Mix (without ADP) and incubated at room temperature (25° C.) for 60 min. The reaction was initiated with 10 μL ADP (0.4 mM final concentration), bringing the final Reaction Mix to 1x, and the reaction progress was measured as changes in absorbance at 340 nm wavelength at room temperature.
as §2
Reaction Mix: PKM2 (5 ng/well, 0.1 μg/ml), ADP (0.4 mM), PEP (0.11 mM), NADH (180 μM), LDH (0.005 U/μL, Sigma #L3888), 1 mM DTT, 0.03% BSA in 1×
as §4

The target in a further assay is PKM2 (Mus musculus, UniProt P52480). Conditions: in vivo; cited from earlier work.

For orientation: AC50 means the midpoint of the concentration-response curve, whichever way the signal moves. A lower AC50 goes with greater potency.

Where only a bound is given, the exact number is not on record here.

Chain of PK R510Q (P30613 whole entry R510Q): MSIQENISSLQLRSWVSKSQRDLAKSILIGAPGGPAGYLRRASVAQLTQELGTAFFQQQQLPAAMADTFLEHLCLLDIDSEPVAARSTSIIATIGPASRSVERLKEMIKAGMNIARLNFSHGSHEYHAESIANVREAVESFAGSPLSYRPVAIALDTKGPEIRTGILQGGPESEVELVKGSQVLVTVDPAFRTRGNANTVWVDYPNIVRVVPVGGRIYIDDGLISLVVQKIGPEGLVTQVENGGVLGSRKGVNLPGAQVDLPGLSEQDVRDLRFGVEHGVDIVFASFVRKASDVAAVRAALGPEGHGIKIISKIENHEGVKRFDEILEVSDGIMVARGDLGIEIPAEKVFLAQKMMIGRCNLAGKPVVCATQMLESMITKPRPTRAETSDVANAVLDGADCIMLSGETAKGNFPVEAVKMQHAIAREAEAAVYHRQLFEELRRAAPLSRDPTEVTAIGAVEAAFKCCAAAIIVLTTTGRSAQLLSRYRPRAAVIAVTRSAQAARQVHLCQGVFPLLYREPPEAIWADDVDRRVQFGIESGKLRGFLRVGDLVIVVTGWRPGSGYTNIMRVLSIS
Chain of PKM2 WT (P14618 whole entry): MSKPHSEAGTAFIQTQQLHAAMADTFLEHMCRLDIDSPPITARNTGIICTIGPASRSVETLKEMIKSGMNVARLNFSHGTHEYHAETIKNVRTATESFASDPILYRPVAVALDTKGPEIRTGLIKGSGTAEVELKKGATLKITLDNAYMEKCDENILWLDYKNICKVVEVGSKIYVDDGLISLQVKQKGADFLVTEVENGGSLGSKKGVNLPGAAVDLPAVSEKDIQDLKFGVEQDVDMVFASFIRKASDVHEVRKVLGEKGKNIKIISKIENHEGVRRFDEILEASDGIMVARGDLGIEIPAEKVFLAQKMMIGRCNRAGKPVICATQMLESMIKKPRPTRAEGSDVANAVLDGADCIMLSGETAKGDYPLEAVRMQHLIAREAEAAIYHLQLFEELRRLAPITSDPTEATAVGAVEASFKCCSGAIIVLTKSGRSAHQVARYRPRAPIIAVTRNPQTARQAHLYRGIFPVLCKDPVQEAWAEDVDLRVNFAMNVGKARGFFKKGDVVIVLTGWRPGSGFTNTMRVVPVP
Chain of PKR K410E (P30613 whole entry K410E): as the sequence (P30613 whole entry R510Q) above, with K410E, Q510R counted along it
Chain of PKR WT (P30613 whole entry): as the sequence (P30613 whole entry R510Q) above, with Q510R counted along it
Chain of PKM2 (P52480 whole entry): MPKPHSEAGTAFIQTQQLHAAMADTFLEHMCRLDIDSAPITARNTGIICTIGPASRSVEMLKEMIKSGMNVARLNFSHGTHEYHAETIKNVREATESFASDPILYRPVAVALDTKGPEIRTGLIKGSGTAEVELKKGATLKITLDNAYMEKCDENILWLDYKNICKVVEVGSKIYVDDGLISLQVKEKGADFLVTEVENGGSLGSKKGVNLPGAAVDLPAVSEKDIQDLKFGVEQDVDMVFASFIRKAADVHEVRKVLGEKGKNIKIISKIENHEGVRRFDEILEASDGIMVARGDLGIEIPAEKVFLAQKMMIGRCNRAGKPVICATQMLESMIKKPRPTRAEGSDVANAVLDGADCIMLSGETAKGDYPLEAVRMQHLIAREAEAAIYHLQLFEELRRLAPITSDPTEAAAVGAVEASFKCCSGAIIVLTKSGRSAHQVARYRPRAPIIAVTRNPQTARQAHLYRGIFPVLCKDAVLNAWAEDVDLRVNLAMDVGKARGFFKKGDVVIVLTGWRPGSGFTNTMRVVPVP

Take `COc1cccc(Cn2ncn3c(c(C)c4nc(C)sc43)c2=O)c1` [Cpd 25]: the AC50 at PKR WT, at PK R510Q, on PKR K410E and at PKM2 WT was greater than 800 nM in each case. Moreover, the “Cell based ATP assay AC50” value in the assay with RBCs was “No Fit”.

As for `Cn1c2ccc([S+](C)[O-])cc2c2cnn(Cc3cccc(C(N)=O)c3)c(=O)c21` (stereo not shown) [Cpd 51], the AC50 on PKR WT, on PK R510Q, at PKR K410E and on PKM2 WT was greater than 800 nM in each case. The “Cell based ATP assay AC50” value in the assay with RBCs is “No Fit”.

Turning to `Cn1c2ccc(S(C)(=O)=O)cc2c2cnn(Cc3cccc(C(N)=O)c3)c(=O)c21` [Cpd 52], the AC50 was greater than 800 nM at PKR WT, greater than 800 nM at PK R510Q, greater than 800 nM at PKR K410E and 301 to 800 nM at PKM2 WT. For the same compound, in the assay with RBCs, the “Cell based ATP assay AC50” value is given as “No Fit”.

Regarding `Cn1ccc(Cn2ncc3c4cc(Cc5cscn5)ccc4n(C)c3c2=O)n1` [Cpd 31], the AC50 on PKR WT was greater than 800 nM; at PK R510Q, greater than 800 nM; on PKR K410E, greater than 800 nM; with RBCs (Homo sapiens, Erythrocyte) it was greater than 1000 nM; at PKM2 WT, greater than 800 nM.

In the case of `COc1cccc(Cc2ccc3c4sc(C)cc4n(C)c3c2)c1` [Cpd 2], the “PKR WT AC50” value on PKR WT is “No Fit”. Besides, on PK R510Q, the “PK R510Q AC50” value is given as “No Fit”. For the same compound, the “PKR K410E AC50” value on PKR K410E was “No Fit”. On PKM2 WT, this compound displayed a half-maximal activity concentration (AC50) greater than 800 nM.

In the case of `Cc1nc2c3cnn(Cc4ccccc4)c(=O)c3n(C)c2s1` [Cpd 26], the AC50 at PKR WT, at PK R510Q, on PKR K410E and at PKM2 WT was greater than 800 nM each time. Further, the “Cell based ATP assay AC50” value with RBCs is listed as “No Fit”.

Turning to `Cn1cc(Cc2ccc3c(c2)c2cnn(Cc4cccc(C(N)=O)c4)c(=O)c2n3C)cn1` [Cpd 35], the “PKR WT AC50” value at PKR WT was “No Fit”. Besides, the “PK R510Q AC50” value on PK R510Q is on record as “No Fit”. Moreover, the “PKR K410E AC50” value at PKR K410E is recorded as “No Fit”. In addition, the “Cell based ATP assay AC50” value with RBCs was “No Fit”. For the same compound, on PKM2 WT, the AC50 was 301 to 800 nM.

Consider `Cn1cc(Cc2ccc3c4cnn(Cc5cccc(C(N)=O)c5)c(=O)c4n(C)c3c2)cn1` [Cpd 62], for which the AC50 at PKR WT was greater than 800 nM; at PK R510Q it was greater than 800 nM; on PKR K410E, greater than 800 nM; on PKM2 WT, 301 to 800 nM. In addition, in the assay on RBCs, the “Cell based ATP assay AC50” value is listed as “No Fit”.

Regarding `COc1cccc(Cn2ncc3c4cc(C#N)ccc4n(C)c3c2=O)c1` [Cpd 45], the AC50 at PKR WT was greater than 800 nM; on PK R510Q, greater than 800 nM; on PKR K410E, greater than 800 nM; at PKM2 WT, less than 300 nM.

For `C=Cc1ccc2c(c1)c1cnn(Cc3cccc(OC)c3)c(=O)c1n2C` [Cpd 39], the AC50 on PKR WT, on PK R510Q, at PKR K410E and at PKM2 WT was greater than 800 nM throughout.

As for `COc1cccc(CN2Cc3c(n(C)c4cc(C)sc34)C2=O)c1` [Cpd 1], the half-maximal activity concentration (AC50) at PKR WT, on PK R510Q, at PKR K410E and on PKM2 WT was greater than 800 nM each time.

For the compound `COc1cccc(Cn2ncc3c4cc(Cc5ccccc5)ccc4n(C)c3c2=O)c1` [Cpd 34], the AC50 on PKR WT, at PK R510Q, on PKR K410E and on PKM2 WT was greater than 800 nM in each case.

With `COc1cccc(Cn2ncc3c4nn(C)cc4n(C)c3c2=O)c1` [Cpd 30], the AC50 on PKR WT, on PK R510Q, at PKR K410E and at PKM2 WT was greater than 800 nM throughout.

For the compound `COc1cccc(Cn2ncc3c4sc(Cc5ccccc5)cc4n(C)c3c2=O)c1` [Cpd 4], the concentration at half-maximal activity (AC50) at PKR WT, at PK R510Q, on PKR K410E and at PKM2 WT was less than 300 nM each time.

For the compound `COc1cccc(Cn2ncc3c4cccnc4n(C)c3c2=O)c1` [Cpd 66], the AC50 at PKR WT was greater than 800 nM; at PK R510Q it was 301 to 800 nM; on PKR K410E, greater than 800 nM; on PKM2 WT, 301 to 800 nM.

`COC(=O)c1ccc2c(c1)c1cnn(Cc3cccc(OC)c3)c(=O)c1n2C` [Cpd 37]: the AC50 on PKR WT, on PK R510Q, on PKR K410E and on PKM2 WT was greater than 800 nM throughout.

As for `C=Cc1ccc2c3cnn(Cc4cccc(OC)c4)c(=O)c3n(C)c2c1` [Cpd 42], the AC50 at PKR WT, on PK R510Q, at PKR K410E and on PKM2 WT was greater than 800 nM in each case.

Take `COc1cccc(Cn2ncc3c4c(C)cccc4n(C)c3c2=O)c1` [Cpd 46]: the “PKR WT AC50” value on PKR WT is “No Fit”. Moreover, the “PK R510Q AC50” value at PK R510Q is recorded as “No Fit”. Also, the AC50 on PKR K410E and at PKM2 WT was greater than 800 nM each time.

As to `Cn1c2cc([S+](C)[O-])sc2c2cnn(Cc3cccc(N)c3)c(=O)c21` (stereo not shown) [TEPP-46], on PKM2, the “LPS and IL-1β production” value was “inhibited”; the “production of IL-10” value was “boosting”.

Take `COc1cccc(Cn2ncc3c4c(Cc5ccccc5)cccc4n(C)c3c2=O)c1` [Cpd 61]: the “PKR WT AC50” value at PKR WT is listed as “No Fit”. Besides, the “PK R510Q AC50” value on PK R510Q is “No Fit”. Besides, the “PKR K410E AC50” value on PKR K410E was “No Fit”. The same compound gave an AC50 on PKM2 WT greater than 800 nM.

Consider `COc1cccc(Cn2ncc3c4ncccc4n(C)c3c2=O)c1` [Cpd 65], for which the AC50 at PKR WT, on PK R510Q, on PKR K410E and on PKM2 WT was greater than 800 nM throughout.

Take `COc1cccc(Cn2ncc3c4c(Br)cccc4n(C)c3c2=O)c1` [Cpd 32]: the AC50 on PKR WT, on PK R510Q, on PKR K410E and on PKM2 WT was greater than 800 nM in each case.

Consider `COc1cccc(Cn2ncc3c4oc(C)nc4n(C)c3c2=O)c1` [Cpd 3], for which the AC50 at PKR WT was greater than 800 nM; on PK R510Q it was greater than 800 nM; at PKR K410E, greater than 800 nM; on PKM2 WT it was 301 to 800 nM.

The record behind these values is US20220127267A1, “THIENO[3,2-B] PYRROLE[3,2-D]PYRIDAZINONE DERIVATIVES AND THEIR USE AS PKM2 DERIVATIVES FOR THE TREATMENT OF CANCER, OBESITY AND DIABETES RELATED DISORDERS” (Agios Pharmaceuticals, Inc., priority 2019, published 2022).
